Reference: ChEMBL document CHEMBL2010681, “Synthesis and SAR study of 4-arylpiperidines and 4-aryl-1,2,3,6-tetrahydropyridines as 5-HT₂C agonists” (Bioorg Med Chem Lett, 2012)

Columns and labels:
[1] = target: T1, 5-hydroxytryptamine receptor 2C (Homo sapiens, UniProt P28335); experiment: Displacement of [3H]-mesulergine from 5HT2C receptor expressed in CHO cell membranes after 90 mins by scintillation counting
T1 sequence (P28335 whole entry): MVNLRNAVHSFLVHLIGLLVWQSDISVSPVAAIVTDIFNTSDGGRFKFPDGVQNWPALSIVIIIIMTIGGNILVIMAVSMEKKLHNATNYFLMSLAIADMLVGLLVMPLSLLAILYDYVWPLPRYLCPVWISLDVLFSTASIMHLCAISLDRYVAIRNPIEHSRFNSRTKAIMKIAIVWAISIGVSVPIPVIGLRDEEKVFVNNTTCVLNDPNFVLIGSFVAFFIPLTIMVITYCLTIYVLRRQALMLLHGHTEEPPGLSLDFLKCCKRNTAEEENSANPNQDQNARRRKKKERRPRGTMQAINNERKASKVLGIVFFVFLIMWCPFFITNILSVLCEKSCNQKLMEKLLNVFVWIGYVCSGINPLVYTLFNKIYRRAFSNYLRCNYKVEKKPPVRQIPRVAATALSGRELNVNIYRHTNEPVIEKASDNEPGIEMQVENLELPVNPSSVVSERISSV

[2] = target: T2, 5-hydroxytryptamine receptor 2C (Homo sapiens) (UniProt P28335); experiment: Displacement of [3H]-mesulergine from 5HT2C receptor expressed in CHO cell membranes at 10 uM after 90 mins by scintillation counting
T2 sequence (whole entry): T1 sequence (P28335 whole entry)

[3] = target: T1, 5-hydroxytryptamine receptor 2C; experiment: Agonist activity at 5HT2C receptor expressed in CHO cells by fluorescence based calcium mobilization assay; format: functional, cell-based
[4] = target: T2, 5-hydroxytryptamine receptor 2C (Homo sapiens); experiment: Displacement of [3H]-mesulergine from 5HT2C receptor expressed in CHO cell membranes at 1 uM after 90 mins by scintillation counting
[5] = target: T1, 5-hydroxytryptamine receptor 2C; experiment: Displacement of [3H]-mesulergine from 5HT2C receptor expressed in CHO cell membranes using 11 concentration of ligand after 90 mins by scintillation counting using complete competition binding curves analysis

Row | Structure (SMILES) | Ki [1] [nM] | inhibition [2] [%] | EC50 ([3]; read-out: EC50) [nM] | inhibition [4] [%] | Ki [5] [nM] | EC50 ([3]; cho)
1 | C1=C(c2ccccc2)CCNC1 | 7180 | 42 | 2450 | 9 |  | 
2 | Clc1cccc(C2=CCNCC2)c1 | 280 | 95 | 72.3 | 65 | 318 | 
3 | Clc1ccccc1C1=CCNCC1.O=C(O)C(F)(F)F |  |  |  |  |  | Not Active
4 | Cc1cccc(C2CCNCC2)c1C.Cl | 1160 |  |  |  |  | Not Active
5 | Brc1ccc(C2=CCNCC2)cc1 | 2540 | 65 | 3520 | 22 |  | 
6 | FC(F)(F)c1cccc(C2CCNCC2)c1 | 1550 | 77 | 1260 | 26 |  | 
7 | Cc1cccc(C2CCNCC2)c1 | 3130 | 63 | 2000 | 15 |  | 
8 | Clc1cccc(C2CCNCC2)c1 | 931 | 83 | 790 | 37 | 1430 | 
9 | Cl.c1ccc(C2CCNCC2)cc1 | > 10000 | 16 |  | 6 |  | Not Active
10 | Cl.Fc1ccc(C2CCNCC2)cc1 | > 10000 |  |  |  |  | Not Active
11 | c1ccc2c(C3CCNCC3)c[nH]c2c1 | 366 | 92 | 128 | 60 | 612 | 
12 | Cc1ccc(C2CCNCC2)cc1.Cl | > 10000 | 33 |  | 9 |  | Not Active
13 | COc1ccc(C2CCNCC2)cc1.Cl | > 10000 | 9 |  | 3 |  | Not Active
14 | O=C(O)C(F)(F)F.c1ccc2c(C3CCNCC3)cccc2c1 | 60 |  |  |  | 72 | Not Active
15 | O=C(O)C(F)(F)F.c1cc2c(c(C3CCNCC3)c1)CCCC2 | 55 |  |  |  | 43 | Not Active
16 | Cl.Oc1cccc(C2CCNCC2)c1 | > 10000 |  |  |  |  | Not Active
17 | C1=C(c2c[nH]c3ccccc23)CCNC1 | 296 | 95 | 163 | 64 | 632 | 
18 | Cl.Clc1ccccc1C1CCNCC1 |  |  |  |  |  | Not Active
19 | FC(F)(F)c1cccc(C2=CCNCC2)c1 | 298 | 93 | 158 | 65 | 365 | 
20 | COc1cccc(C2CCNCC2)c1.Cl | 6190 |  |  |  |  | Not Active
21 | CN(C)c1ccc(C2CCNCC2)cc1.Cl | > 10000 |  |  |  |  | Not Active
22 | Clc1ccc(C2=CCNCC2)cc1 | 3100 | 62 | 1760 | 17 |  | 
23 | Cl.Clc1ccc(C2CCNCC2)cc1 | > 10000 |  |  |  |  | Not Active
24 | COc1ccccc1C1CCNCC1.Cl | 1800 | 74 |  | 23 |  | Not Active
25 | Cl.FC(F)(F)c1ccc(C2CCNCC2)cc1 | 8320 |  |  |  |  | Not Active
26 | Cl.FC(F)(F)c1ccccc1C1CCNCC1 | 826 |  |  |  |  | Not Active
27 | Cc1ccccc1C1CCNCC1.Cl | 3170 | 65 |  | 10 |  | Not Active
